Experimental findings from patent US9758524B2, “4-imidazopyridazin-1-yl-benzamides as Btk inhibitors” (Merck Sharp & Dohme B.V., priority 2011, dated 2017) are described below.

In assay [1] the target is Btk enzyme (His-Btk) (Homo sapiens (Human), UniProt Q06187). In words: Btk enzyme activity (IMAP fluorescence polarization assay). Particulars: for EC50 Btk activity values / EC50: IMAP, 60 min pre-incubation, 5 μM ATP; for EC50: read-out: EC50 Btk activity values. (In general: In fluorescence polarisation assays a small probe gives low polarisation when free and higher when bound to something large.)
Sequence of Btk enzyme (His-Btk) (Q06187 whole entry): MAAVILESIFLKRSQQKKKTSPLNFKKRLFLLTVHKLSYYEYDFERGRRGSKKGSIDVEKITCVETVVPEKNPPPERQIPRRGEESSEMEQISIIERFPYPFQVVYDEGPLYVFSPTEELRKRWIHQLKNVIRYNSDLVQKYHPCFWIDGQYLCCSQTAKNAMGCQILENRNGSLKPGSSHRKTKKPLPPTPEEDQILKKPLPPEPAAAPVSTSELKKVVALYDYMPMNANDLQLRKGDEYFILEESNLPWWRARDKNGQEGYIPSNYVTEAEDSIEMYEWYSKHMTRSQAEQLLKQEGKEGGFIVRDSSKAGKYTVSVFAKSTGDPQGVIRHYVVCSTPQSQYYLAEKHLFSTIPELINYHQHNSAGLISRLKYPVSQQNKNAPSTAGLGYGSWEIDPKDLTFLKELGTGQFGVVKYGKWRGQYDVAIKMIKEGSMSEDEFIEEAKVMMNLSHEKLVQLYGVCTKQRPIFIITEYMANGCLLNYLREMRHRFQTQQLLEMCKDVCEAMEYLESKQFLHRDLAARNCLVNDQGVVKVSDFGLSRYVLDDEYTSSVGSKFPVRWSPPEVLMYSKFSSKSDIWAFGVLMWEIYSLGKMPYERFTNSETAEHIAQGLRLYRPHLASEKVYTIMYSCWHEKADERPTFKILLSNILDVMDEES

Assay [2] has as its target Lyn enzyme (Homo sapiens (Human), UniProt P07948). In words: Lyn enzyme activity (IMAP fluorescence polarization assay). Particulars: read-out: EC50 Lyn activity values, 60 min pre-incubation, 2 μM ATP, bin bound in μM.
The target of assay [3] is FynT enzyme (Homo sapiens (Human), UniProt P06241). In words: FynT enzyme activity (IMAP fluorescence polarization assay). Conditions: 60 min pre-incubation, 0.2 μM ATP. Format: biochemical. The essentials: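 Human FynT pre-incubated with compounds 60 min at room temperature, then reacted 2 h at room temperature with fluorescein-labelled p34cdc2 peptide (100 nM final). Stopped with IMAP binding solution; fluorescence polarization read after 60 min. Activity as % of ±ATP control difference; EC50 by curve fitting.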
Sequence of FynT enzyme (P06241 other isoform, or with tags, fused parts or gaps): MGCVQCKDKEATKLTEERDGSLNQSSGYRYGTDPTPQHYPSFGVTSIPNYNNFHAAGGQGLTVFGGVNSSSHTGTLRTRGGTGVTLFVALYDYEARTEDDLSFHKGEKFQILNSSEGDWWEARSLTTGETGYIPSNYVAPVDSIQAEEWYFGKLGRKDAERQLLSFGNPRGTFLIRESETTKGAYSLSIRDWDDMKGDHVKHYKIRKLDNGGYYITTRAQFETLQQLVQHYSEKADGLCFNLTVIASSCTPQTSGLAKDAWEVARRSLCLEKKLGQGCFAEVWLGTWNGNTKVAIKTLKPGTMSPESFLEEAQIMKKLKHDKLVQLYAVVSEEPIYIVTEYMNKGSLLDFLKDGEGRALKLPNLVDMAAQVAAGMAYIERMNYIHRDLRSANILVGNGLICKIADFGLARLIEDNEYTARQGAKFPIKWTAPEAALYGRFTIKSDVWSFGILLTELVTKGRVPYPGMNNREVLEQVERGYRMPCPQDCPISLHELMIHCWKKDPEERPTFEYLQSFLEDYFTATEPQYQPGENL

The target of assay [4] is Src enzyme (Homo sapiens (Human), UniProt P12931). In words: Src enzyme activity (IMAP fluorescence polarization assay). Conditions: read-out: EC50 Src activity values; IMAP, 60 min pre-incubation, 4 μM ATP.
Sequence of Src enzyme (P12931 whole entry, looked up): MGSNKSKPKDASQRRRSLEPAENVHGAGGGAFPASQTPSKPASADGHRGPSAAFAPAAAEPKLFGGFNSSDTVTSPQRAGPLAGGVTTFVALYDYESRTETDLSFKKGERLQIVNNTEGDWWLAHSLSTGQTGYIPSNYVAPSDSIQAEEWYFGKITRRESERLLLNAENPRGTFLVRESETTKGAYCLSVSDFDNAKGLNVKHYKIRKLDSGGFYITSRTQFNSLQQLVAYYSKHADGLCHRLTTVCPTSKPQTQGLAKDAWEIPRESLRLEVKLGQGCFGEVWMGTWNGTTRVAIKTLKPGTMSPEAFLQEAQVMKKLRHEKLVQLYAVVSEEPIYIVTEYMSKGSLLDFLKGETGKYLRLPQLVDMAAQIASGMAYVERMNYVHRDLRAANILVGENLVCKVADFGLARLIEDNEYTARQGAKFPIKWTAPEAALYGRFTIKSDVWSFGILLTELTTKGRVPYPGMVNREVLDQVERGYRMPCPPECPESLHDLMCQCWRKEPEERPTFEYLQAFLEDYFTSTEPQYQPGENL
In assay [5] the target is Lck enzyme (Homo sapiens (Human), UniProt P06239). In words: Lck enzyme activity (IMAP fluorescence polarization assay). Particulars: for EC50: read-out: EC50 Lck activity values.
Sequence of Lck enzyme (P06239 whole entry): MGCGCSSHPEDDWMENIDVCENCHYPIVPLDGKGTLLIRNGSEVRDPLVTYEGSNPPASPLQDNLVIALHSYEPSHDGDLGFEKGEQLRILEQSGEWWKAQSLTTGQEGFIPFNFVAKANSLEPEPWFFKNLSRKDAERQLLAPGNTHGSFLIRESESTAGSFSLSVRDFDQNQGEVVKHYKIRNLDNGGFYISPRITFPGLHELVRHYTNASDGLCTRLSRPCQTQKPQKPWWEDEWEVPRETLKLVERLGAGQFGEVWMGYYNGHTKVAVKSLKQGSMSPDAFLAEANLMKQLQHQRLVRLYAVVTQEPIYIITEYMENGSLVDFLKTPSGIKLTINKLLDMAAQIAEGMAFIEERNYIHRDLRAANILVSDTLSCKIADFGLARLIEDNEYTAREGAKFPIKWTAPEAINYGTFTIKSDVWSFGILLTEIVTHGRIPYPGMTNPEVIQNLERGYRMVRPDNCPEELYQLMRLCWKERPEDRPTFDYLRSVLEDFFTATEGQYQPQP
Setting [6] is: IMAP, 60 min pre-incubation, 6 μM ATP, bin bound in μM.

pEC50: −log10 of the molar value. Where two headings read alike, the source gives them in different places.

Sequence of Lyn enzyme (P07948 whole entry): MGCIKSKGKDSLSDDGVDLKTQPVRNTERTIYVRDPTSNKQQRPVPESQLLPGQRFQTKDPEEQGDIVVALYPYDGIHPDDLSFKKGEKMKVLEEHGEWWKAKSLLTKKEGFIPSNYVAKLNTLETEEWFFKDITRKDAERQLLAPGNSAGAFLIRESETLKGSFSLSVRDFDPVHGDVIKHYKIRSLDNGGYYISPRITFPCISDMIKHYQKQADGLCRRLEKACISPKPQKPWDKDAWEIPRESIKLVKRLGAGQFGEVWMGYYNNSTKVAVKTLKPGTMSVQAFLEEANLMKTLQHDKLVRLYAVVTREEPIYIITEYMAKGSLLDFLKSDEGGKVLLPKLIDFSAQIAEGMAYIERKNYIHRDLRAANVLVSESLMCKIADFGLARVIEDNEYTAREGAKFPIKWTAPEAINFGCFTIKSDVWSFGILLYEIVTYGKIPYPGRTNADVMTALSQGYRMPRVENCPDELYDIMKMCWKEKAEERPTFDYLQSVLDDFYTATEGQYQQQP

Broadly, the pEC50 is the negative decadic logarithm of the EC50, by convention in mol/L. The term EC50 denotes the concentration that produces a half-maximal response. For `CC#CC(=O)N1CCC[C@H]1c1nc(-c2ccc(C(=O)Nc3cc(N4CCCC4)ccn3)cc2)c2c(N)nccn12` [Example 96, (S)-4-(8-amino-3-(1-but-2-ynoylpyrrolidin-2-yl)imidazo[1,5-a]pyrazin-1-yl)-N-(4-(pyrrolidin-1-yl)pyridin-2-yl)benzamide], the pEC50 in assay [1] was 7.00 to 8.00; in assay [3] it was at most 6.00; in assay [4] it was at most 6.00. Moreover, the “EC50 Btk activity values” in assay [1] (bin bound in nM) is reported as under 100 nM. Further, the EC50 in assay [2] and in assay [5] (setting [6]) was at least 1 µM each time.

As for `CCCc1ccnc(NC(=O)c2ccc(-c3nc([C@@H]4CCCN4C(=O)c4ccnc(Cl)n4)n4ccnc(N)c34)cc2)c1` [Example 79, (S)-4-(8-amino-3-(1-(2-chloropyrimidine-4-carbonyl)pyrrolidin-2-yl)imidazo[1,5-a]pyrazin-1-yl)-N-(4-propylpyridin-2-yl)benzamide], the half-maximal effective concentration (EC50) was under 10 nM in assay [1] (bin bound in nM), at least 1 µM in assay [2] and at least 1 µM in assay [5] (setting [6]). In addition, the negative-log EC50 (pEC50) in assay [3] and in assay [4] was at most 6.00 in each case.

As for `COC/C=C/C(=O)N1CCC[C@H]1c1nc(-c2ccc(C(=O)Nc3ccccn3)cc2)c2c(N)nccn12` [Example 4, (S,E)-4-(8-amino-3-(1-(4-methoxybut-2-enoyl)pyrrolidin-2-yl)imidazo[1,5-a]pyrazin-1-yl)-N-(pyridin-2-yl)benzamide], the figures for the pEC50 in assay [1], in assay [3] and in assay [4] were 7.00 to 8.00, at most 6.00 and at most 6.00, respectively. Moreover, the “EC50 Btk activity values” in assay [1] (bin bound in nM) is on record as under 100 nM. In addition, the EC50 in assay [2] and in assay [5] (setting [6]) was at least 1 µM in each case.

For `CC(C)c1ccnc(NC(=O)c2ccc(-c3nc([C@@H]4CCCN4C(=O)/C=C/CN(C)C)n4ccnc(N)c34)cc2)c1` [Example 65, (S,E)-4-(8-amino-3-(1-(4-(dimethylamino)but-2-enoyl)pyrrolidin-2-yl)imidazo[1,5-a]pyrazin-1-yl)-N-(4-isopropylpyridin-2-yl)benzamide], the EC50 in assay [1] (bin bound in nM) is under 10 nM; in assay [2], at least 1 µM; in assay [5] (setting [6]) it was at least 1 µM. Also, the pEC50 in assay [3] and in assay [4] was at most 6.00 throughout.

`COC/C=C/C(=O)N1CCCC[C@H]1c1nc(-c2ccc(C(=O)Nc3ncccn3)cc2)c2c(N)nccn12` [Example 55, (S,E)-4-(8-amino-3-(1-(4-methoxybut-2-enoyl)piperidin-2-yl)imidazo[1,5-a]pyrazin-1-yl)-N-(pyrimidin-2-yl)benzamide]: the pEC50 is 6.00 to 7.00 in assay [1], at most 6.00 in assay [3] and at most 6.00 in assay [4]. Besides, in assay [1] (bin bound in μM), the “EC50 Btk activity values” is under 1000 nM. Further, the EC50 in assay [2] and in assay [5] (setting [6]) was at least 1 µM throughout.

As to `C=CC(=O)N1CCCC[C@H]1c1nc(-c2ccc(C(=O)Nc3cc(C#N)ccn3)cc2)c2c(N)nccn12` [Example 18, (S)-4-(3-(1-Acryloylpiperidin-2-yl)-8-aminoimidazo[1,5-a]pyrazin-1-yl)-N-(4-cyanopyridin-2-yl)benzamide], the EC50 was under 10 nM in assay [1] (bin bound in nM), at least 1 µM in assay [2] and at least 1 µM in assay [5] (setting [6]). Moreover, the pEC50 in assay [3] and in assay [4] was at most 6.00 throughout.

`COC/C=C/C(=O)N1CCCC[C@H]1c1nc(-c2ccc(C(=O)Nc3cc(F)ccn3)cc2)c2c(N)nccn12` [Example 81, (S,E)-4-(8-amino-3-(1-(4-methoxybut-2-enoyl)piperidin-2-yl)imidazo[1,5-a]pyrazin-1-yl)-N-(4-fluoropyridin-2-yl)benzamide]: the negative logarithm of the EC50 (pEC50) in assay [1] is 7.00 to 8.00; in assay [3], at most 6.00; in assay [4] it was at most 6.00. Moreover, the “EC50 Btk activity values” in assay [1] (bin bound in nM) was under 100 nM. Besides, the concentration giving a half-maximal response (EC50) in assay [2] and in assay [5] (setting [6]) was at least 1 µM each time.

In the case of `C=CC(=O)NCc1nc(-c2ccc(C(=O)Nc3ccccn3)cc2)c2c(N)nccn12` [Example 29, 4-(3-(Acrylamidomethyl)-8-aminoimidazo[1,5-a]pyrazin-1-yl)-N-(pyridin-2-yl)benzamide], the EC50 in assay [1] (bin bound in nM) was under 10 nM; in assay [2] it was at least 1 µM; in assay [5] (setting [6]) it was at least 1 µM. Moreover, the pEC50 in assay [3] and in assay [4] was at most 6.00 throughout.

For `CC#CC(=O)N1CCC[C@H]1c1nc(-c2ccc(C(=O)Nc3cc(CCC)ccn3)cc2)c2c(N)nccn12` [Example 47, (S)-4-(8-amino-3-(1-but-2-ynoylpyrrolidin-2-yl)imidazo[1,5-a]pyrazin-1-yl)-N-(4-propylpyridin-2-yl)benzamide], the values for the EC50 in assay [1] (bin bound in nM), in assay [2] and in assay [5] (setting [6]) were under 10 nM, at least 1 µM and at least 1 µM, respectively. Also, the pEC50 in assay [3] and in assay [4] was at most 6.00 in each case.

Consider `Nc1nccn2c([C@@H]3CCCN3C(=O)/C=C/c3ccccc3)nc(-c3ccc(C(=O)Nc4ccccn4)cc3)c12` [Example 104, (S,E)-4-(8-amino-3-(1-cinnamoylpyrrolidin-2-yl)imidazo[1,5-a]pyrazin-1-yl)-N-(pyridin-2-yl)benzamide], for which the pEC50 is 6.00 to 7.00 in assay [1], at most 6.00 in assay [3], at most 6.00 in assay [4] and 6.00 to 7.00 in assay [5]. For the same compound, the “EC50 Btk activity values” in assay [1] (bin bound in μM) was under 1000 nM. In addition, in assay [2], the EC50 is at least 1 µM. Moreover, in assay [5] (setting [6]), the “EC50 Lck activity values” was under 1 µM.

With `Nc1nccn2c([C@@H]3CCCCN3C(=O)c3ccnc(Cl)n3)nc(-c3ccc(C(=O)Nc4cc(F)ccn4)cc3)c12` [Example 80, (S)-4-(8-amino-3-(1-(2-chloropyrimidine-4-carbonyl)piperidin-2-yl)imidazo[1,5-a]pyrazin-1-yl)-N-(4-fluoropyridin-2-yl)benzamide], the pEC50 in assay [1] was 7.00 to 8.00; in assay [3], at most 6.00; in assay [4], at most 6.00. Further, in assay [1] (bin bound in nM), the “EC50 Btk activity values” is on record as under 100 nM. The concentration giving a half-maximal response (EC50) in assay [2] and in assay [5] (setting [6]) was at least 1 µM in each case.

As for `C=CS(=O)(=O)N1CCCC[C@H]1c1nc(-c2ccc(C(=O)Nc3cc(C(F)(F)F)ccn3)cc2)c2c(N)nccn12` [Example 19, (S)-4-(8-Amino-3-(1-(vinylsulfonyl)piperidin-2-yl)imidazo[1,5-a]pyrazin-1-yl)-N-(4-(trifluoromethyl)pyridin-2-yl)benzamide], the EC50 in assay [1] (bin bound in nM) was under 10 nM; in assay [2] it was at least 1 µM; in assay [5] (setting [6]), at least 1 µM. Also, the pEC50 in assay [3] and in assay [4] was at most 6.00 throughout.

For the compound `COC/C=C/C(=O)N1CCCC[C@H]1c1nc(-c2ccc(C(=O)Nc3nccc(C)n3)cc2)c2c(N)nccn12` [Example 88, (S,E)-4-(8-amino-3-(1-(4-methoxybut-2-enoyl)piperidin-2-yl)imidazo[1,5-a]pyrazin-1-yl)-N-(4-methylpyrimidin-2-yl)benzamide], the negative-log EC50 (pEC50) in assay [1] is 6.00 to 7.00; in assay [3] it was at most 6.00; in assay [4], at most 6.00. Moreover, in assay [1] (bin bound in μM), the “EC50 Btk activity values” is under 1000 nM. The EC50 in assay [2] and in assay [5] (setting [6]) was at least 1 µM throughout.

As for `CC#CC(=O)N(C)[C@@H](C)c1nc(-c2ccc(C(=O)Nc3cc(C(F)(F)F)ccn3)cc2)c2c(N)nccn12` [Example 39, (S)-4-(8-amino-3-(1-(N-methylbut-2-ynamido)ethyl)imidazo[1,5-a]pyrazin-1-yl)-N-(4-(trifluoromethyl)pyridin-2-yl)benzamide], the EC50 in assay [1] (bin bound in nM) was under 10 nM; in assay [2], at least 1 µM; in assay [5] (setting [6]), at least 1 µM. For the same compound, the pEC50 in assay [3] and in assay [4] was at most 6.00 throughout.

Take `COC/C=C/C(=O)N1CCCC[C@H]1c1nc(-c2ccc(C(=O)Nc3ccccn3)cc2)c2c(N)nccn12` [Example 16, (S,E)-4-(8-Amino-3-(1-(4-methoxybut-2-enoyl)piperidin-2-yl)imidazo[1,5-a]pyrazin-1-yl)-N-(pyridin-2-yl)benzamide]: the half-maximal effective concentration (EC50) is under 10 nM in assay [1] (bin bound in nM), at least 1 µM in assay [2] and at least 1 µM in assay [5] (setting [6]). For the same compound, the negative-log EC50 (pEC50) in assay [3] and in assay [4] was at most 6.00 each time.

With `CC#CC(=O)N1CCCC[C@H]1c1nc(-c2ccc(C(=O)Nc3ccon3)cc2)c2c(N)nccn12` [Example 24, (S)-4-(8-Amino-3-(1-but-2-ynoylpiperidin-2-yl)imidazo[1,5-a]pyrazin-1-yl)-N-(isoxazol-3-yl)benzamide], the pEC50 is 7.00 to 8.00 in assay [1], at most 6.00 in assay [3] and at most 6.00 in assay [4]. In assay [1] (bin bound in nM), the “EC50 Btk activity values” is reported as under 100 nM. For the same compound, the EC50 in assay [2] and in assay [5] (setting [6]) was at least 1 µM in each case.

Turning to `Cc1cc(C(=O)Nc2ccccn2)ccc1-c1nc([C@@H]2CCCCN2C(=O)c2ccnc(Cl)n2)n2ccnc(N)c12` [Example 56, 4-(8-amino-3-((S)-1-(2-chloropyrimidine-4-carbonyl)piperidin-2-yl)imidazo[1,5-a]pyrazin-1-yl)-3-methyl-N-(pyridin-2-yl)benzamide], the pEC50 is 7.00 to 8.00 in assay [1], at most 6.00 in assay [3] and at most 6.00 in assay [4]. Also, the “EC50 Btk activity values” in assay [1] (bin bound in nM) is under 100 nM. The EC50 in assay [2] and in assay [5] (setting [6]) was at least 1 µM throughout.
